# According to ChEMBL document CHEMBL1201862, “PubChem BioAssay data set” (2004):
# Activity calls are given as the source filed them.
# Experiments:
# [1] = target: Neuropeptides B/W receptor type 1 (Homo sapiens, UniProt P48145); assay: Fluorescence-based dose response cell-based high throughput screening assay to identify antagonists of the G-protein coupled receptor 7 (GPR7). [Related pubchem assays: 1952 (Screening assay (GPR7 antagonists).), 1880 (Summary AID.)]; assay type: functional
# [2] = target: Melanin-concentrating hormone receptor 1 (Homo sapiens, UniProt Q99705); assay: Fluorescence-based counterscreen for antagonists of the G-protein coupled receptor 7 (GPR7): cell-based high throughput dose response assay to identify antagonists of the melanin-concentrating hormone receptor 1 (MCHR1).; assay type: functional
# Sequence of Melanin-concentrating hormone receptor 1 (Q99705 whole entry): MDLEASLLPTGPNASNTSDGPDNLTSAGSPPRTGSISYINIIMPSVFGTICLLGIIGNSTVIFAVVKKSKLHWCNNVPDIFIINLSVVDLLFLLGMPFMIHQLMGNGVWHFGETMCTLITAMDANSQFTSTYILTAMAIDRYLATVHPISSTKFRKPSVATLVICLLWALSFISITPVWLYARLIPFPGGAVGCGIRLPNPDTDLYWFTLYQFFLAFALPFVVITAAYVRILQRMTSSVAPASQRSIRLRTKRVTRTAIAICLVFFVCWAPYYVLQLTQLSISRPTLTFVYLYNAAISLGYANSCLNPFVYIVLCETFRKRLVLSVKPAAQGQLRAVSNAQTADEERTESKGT
# [3] = target: DNA dC->dU-editing enzyme APOBEC-3A (Homo sapiens, UniProt P31941); assay: Dose Response confirmation of small molecule APOBEC3A DNA Deaminase Inhibitors via a fluorescence-based single-stranded DNA deaminase assay. [Related pubchem assays (depositor defined):AID493011, AID493024]; assay type: functional
# Sequence of DNA dC->dU-editing enzyme APOBEC-3A (P31941 whole entry): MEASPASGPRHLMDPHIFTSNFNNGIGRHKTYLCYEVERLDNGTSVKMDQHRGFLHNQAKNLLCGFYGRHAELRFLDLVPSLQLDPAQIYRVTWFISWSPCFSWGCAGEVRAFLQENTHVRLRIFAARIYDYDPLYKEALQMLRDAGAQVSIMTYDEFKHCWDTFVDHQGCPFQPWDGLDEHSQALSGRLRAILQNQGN
# [4] = target: DNA dC->dU-editing enzyme APOBEC-3G (Homo sapiens, UniProt Q9HC16); assay type: functional;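 further: Dose-response counterscreen measuring inhibition of APOBEC3G DNA deaminase activity, run while confirming APOBEC3A inhibitors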
# Sequence of DNA dC->dU-editing enzyme APOBEC-3G (Q9HC16 whole entry): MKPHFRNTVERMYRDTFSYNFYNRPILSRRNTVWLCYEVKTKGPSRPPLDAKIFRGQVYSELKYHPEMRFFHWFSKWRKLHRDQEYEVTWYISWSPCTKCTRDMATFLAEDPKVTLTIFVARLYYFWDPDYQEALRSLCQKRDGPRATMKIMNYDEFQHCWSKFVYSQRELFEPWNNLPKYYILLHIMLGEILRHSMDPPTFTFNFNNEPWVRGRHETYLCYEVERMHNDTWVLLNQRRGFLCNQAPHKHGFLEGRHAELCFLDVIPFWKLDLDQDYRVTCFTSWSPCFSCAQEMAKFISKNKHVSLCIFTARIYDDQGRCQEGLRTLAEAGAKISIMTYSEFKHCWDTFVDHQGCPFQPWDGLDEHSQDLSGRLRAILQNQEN
# [5] = target: Serine/threonine-protein phosphatase PP1-alpha catalytic subunit (Homo sapiens, UniProt P62136); assay: inhibition of protein phosphatase 1 activity – biochemical, fluorescence, dose response (AID 2403);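 further: phosphatase turnover of OMFP into fluorescent 3-O-methylfluorescein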
# Sequence of Serine/threonine-protein phosphatase PP1-alpha catalytic subunit (P62136 whole entry): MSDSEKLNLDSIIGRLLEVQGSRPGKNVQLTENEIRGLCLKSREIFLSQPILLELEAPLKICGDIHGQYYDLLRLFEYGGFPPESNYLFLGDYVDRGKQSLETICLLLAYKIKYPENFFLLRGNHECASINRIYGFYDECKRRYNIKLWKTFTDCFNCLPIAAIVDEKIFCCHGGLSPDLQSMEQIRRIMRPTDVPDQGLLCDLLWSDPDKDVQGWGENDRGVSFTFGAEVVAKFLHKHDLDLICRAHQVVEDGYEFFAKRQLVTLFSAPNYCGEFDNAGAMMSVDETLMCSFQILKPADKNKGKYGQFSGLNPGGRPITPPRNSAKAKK
# [6] = target: Serine/threonine-protein phosphatase (Homo sapiens, UniProt Q9BPW0); assay: Counterscreen for inhibitors of PP1: fluorescence-based biochemical high throughput dose response assay to identify inhibitors of Protein Phosphatase 5 (PP5). [Related pubchem assays: 2034 (Summary (PP5 inhibitors)), 1987 (PP5 inhibitors in singlate), 2235 (PP1 inhibitors in singlate)]
# Sequence of Serine/threonine-protein phosphatase (Q9BPW0 whole entry): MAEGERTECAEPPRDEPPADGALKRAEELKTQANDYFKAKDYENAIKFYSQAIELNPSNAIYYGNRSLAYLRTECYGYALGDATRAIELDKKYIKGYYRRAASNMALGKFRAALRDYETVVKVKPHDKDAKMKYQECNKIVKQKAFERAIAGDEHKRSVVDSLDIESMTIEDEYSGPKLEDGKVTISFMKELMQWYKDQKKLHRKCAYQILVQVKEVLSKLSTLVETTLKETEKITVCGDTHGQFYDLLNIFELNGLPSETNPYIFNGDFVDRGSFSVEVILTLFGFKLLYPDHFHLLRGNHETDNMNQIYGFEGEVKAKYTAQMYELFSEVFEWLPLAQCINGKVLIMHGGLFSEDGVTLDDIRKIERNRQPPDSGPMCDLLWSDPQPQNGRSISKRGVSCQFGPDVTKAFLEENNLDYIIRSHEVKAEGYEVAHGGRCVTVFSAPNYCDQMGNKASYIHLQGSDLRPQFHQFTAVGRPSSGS
# [7] = target: T1, Alkaline phosphatase, tissue-nonspecific isozyme (Homo sapiens, UniProt P05186)
# T1 sequence (P05186 whole entry): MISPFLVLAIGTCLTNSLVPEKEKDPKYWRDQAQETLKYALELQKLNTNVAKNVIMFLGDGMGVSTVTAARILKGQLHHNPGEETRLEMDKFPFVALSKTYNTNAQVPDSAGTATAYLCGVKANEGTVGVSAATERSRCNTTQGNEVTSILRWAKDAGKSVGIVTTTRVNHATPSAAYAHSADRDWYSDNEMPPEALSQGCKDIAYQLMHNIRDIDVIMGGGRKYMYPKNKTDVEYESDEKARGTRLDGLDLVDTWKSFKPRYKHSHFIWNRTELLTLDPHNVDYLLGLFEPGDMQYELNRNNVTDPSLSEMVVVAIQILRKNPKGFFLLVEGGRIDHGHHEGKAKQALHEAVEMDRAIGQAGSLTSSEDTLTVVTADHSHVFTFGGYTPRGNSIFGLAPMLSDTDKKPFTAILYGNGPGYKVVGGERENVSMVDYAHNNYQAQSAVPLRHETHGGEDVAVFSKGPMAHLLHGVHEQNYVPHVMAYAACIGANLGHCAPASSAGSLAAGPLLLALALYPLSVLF
# [8] = viability of PTEN-deleted HCT116 cells – cell-based, HCT116 PTEN knockout, dose response (AID 1047); assay type: functional;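 further: HCT116 colon tumor cells with PTEN knocked out; cells exposed to compound for 60 hours before readout; potency for loss of cell viability measured by luminescence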
# [9] = viability of HCT116 lacking mutant beta-catenin – cell-based, human colon tumor, dose response (AID 1045); assay type: functional;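 further: HCT116 colon tumor cells with beta catenin knocked out; cells exposed to compound for 60 hours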
# [10] = target: T2, Tyrosine-protein phosphatase non-receptor type 7 (Homo sapiens, UniProt P35236); assay type: functional
# T2 sequence (P35236 whole entry): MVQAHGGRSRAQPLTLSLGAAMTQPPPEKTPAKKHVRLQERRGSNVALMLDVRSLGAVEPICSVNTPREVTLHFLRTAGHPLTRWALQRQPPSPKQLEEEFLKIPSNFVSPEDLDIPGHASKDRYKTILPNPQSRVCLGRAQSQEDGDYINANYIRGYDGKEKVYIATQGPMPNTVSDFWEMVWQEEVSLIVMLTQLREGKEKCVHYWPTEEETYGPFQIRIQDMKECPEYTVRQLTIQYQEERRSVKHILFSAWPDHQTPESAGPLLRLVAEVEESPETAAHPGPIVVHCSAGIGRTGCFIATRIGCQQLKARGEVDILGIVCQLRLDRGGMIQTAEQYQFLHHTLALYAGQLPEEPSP
# [11] = target: Glyceraldehyde-3-phosphate dehydrogenase (Homo sapiens, UniProt P04406)
# Sequence of Glyceraldehyde-3-phosphate dehydrogenase (P04406 whole entry): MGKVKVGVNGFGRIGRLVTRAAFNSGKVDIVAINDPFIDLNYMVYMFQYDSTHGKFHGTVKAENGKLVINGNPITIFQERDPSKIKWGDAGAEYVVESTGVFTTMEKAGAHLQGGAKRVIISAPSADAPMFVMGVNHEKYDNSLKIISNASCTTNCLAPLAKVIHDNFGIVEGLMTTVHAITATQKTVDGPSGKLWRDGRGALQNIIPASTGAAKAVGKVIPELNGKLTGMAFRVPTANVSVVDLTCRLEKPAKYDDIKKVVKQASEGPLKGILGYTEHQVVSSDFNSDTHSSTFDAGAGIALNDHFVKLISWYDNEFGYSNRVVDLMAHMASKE
# [12] = target: T3, Dual specificity protein phosphatase 6 (Rattus norvegicus, UniProt Q64346)
# T3 sequence (Q64346 whole entry): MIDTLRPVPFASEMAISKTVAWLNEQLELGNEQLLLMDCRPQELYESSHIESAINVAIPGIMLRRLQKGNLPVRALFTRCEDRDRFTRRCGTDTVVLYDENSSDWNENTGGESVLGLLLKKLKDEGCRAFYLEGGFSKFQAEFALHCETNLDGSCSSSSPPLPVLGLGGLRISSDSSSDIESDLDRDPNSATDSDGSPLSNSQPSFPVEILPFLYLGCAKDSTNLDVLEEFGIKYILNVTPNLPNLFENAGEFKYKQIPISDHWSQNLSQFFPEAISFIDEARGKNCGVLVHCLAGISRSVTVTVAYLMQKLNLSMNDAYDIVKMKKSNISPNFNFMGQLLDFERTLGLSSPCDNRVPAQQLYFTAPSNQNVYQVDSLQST
# [13] = target: T3, Dual specificity protein phosphatase 6; assay type: functional
# [14] = luciferase reporter signal suppression in cells – H4 neuroglioma cells, luminescence, dose response (AID 1990); assay type: functional, cell-based
# [15] = target: T4, Luciferin 4-monooxygenase (Photinus pyralis, UniProt P08659); assay: Counter Screen for Luciferase-based Assay Positives. [Related pubchem assays: 620, 618, 411 ]
# T4 sequence (P08659 whole entry): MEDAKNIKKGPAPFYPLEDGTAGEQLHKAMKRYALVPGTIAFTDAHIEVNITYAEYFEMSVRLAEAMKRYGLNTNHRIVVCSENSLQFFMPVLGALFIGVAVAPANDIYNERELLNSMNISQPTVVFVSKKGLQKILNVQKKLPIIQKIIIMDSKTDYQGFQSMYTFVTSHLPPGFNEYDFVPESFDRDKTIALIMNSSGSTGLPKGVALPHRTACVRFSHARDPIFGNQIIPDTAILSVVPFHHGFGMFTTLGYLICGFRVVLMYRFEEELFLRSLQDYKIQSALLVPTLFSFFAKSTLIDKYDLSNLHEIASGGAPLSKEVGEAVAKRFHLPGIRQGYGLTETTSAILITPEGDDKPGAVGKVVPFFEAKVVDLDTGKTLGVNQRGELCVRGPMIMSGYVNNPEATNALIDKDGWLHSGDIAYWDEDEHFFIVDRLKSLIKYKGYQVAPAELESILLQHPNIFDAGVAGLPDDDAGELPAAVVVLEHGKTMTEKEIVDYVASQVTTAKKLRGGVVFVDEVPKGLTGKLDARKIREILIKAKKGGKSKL
# cells = assay type: functional, cell-based
# [16] = Luminescence Cell-Based Dose Response HTS to Identify Inhibitors of 5'UTR Stem-Loop Driven Prion Protein mRNA Translation in H4 Neuroglioblastoma Cells. [Related pubchem assays: 1827 (Project Summary), 1813 (Primary HTS)]; assay type: functional
# [17] = target: T5, Heat shock factor protein 1 (Mus musculus, UniProt P38532); assay: decrease of HSF1-responsive luciferase luminescence – cell-based, NIH3T3, dose retest, confirmation (AID 2382); assay type: functional;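 further: NIH3T3 fibroblasts with HSF1-driven luciferase reporter stressed by proteasome inhibitor MG132; luminescence from HSF1-driven luciferase expression after 8 hours of MG132 stress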
# T5 sequence (P38532 whole entry): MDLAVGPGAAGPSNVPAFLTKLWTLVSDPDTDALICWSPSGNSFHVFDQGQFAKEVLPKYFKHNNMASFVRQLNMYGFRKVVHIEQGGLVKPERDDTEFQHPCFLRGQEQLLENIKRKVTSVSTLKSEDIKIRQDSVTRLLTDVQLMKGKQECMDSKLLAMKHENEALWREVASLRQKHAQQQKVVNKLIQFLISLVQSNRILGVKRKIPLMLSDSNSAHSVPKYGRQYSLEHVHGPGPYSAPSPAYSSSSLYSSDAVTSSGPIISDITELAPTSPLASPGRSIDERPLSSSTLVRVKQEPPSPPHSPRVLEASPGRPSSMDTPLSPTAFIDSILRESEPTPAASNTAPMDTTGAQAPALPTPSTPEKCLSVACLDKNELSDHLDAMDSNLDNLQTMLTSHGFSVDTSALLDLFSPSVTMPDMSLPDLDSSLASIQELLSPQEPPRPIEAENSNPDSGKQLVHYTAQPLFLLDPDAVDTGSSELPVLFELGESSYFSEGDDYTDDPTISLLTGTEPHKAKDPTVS
# [18] = alpha-synuclein stem-loop luciferase translation blockers – H4 neuroglioma cells, luminescence, confirmation (AID 1988); assay type: functional, cell-based
# [19] = target: T4, Luciferin 4-monooxygenase; assay: inhibition of purified Photinus pyralis luciferase – biochemical, luminescence, dose response (AID 1891)
# [20] = Luminescence Cell-Based Dose Confirmation HTS to Identify Inhibitors of Platelet Dense Granule Release. [Related pubchem assays: 1663 (Primary HTS), 1678 (Summary of Project)]; assay type: functional
# HT-1080 = assay: HT1080 cell viability loss – fluorescence readout (AID 620); assay type: functional, cell-based; conditions: Homo sapiens
# [21] = alpha-synuclein stem-loop translation blockers – luminescence, H4 neuroglioblastoma cells, dose confirmation, confirmation (AID 2454); assay type: functional, cell-based;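 further: H4 neuroglioblastoma cells carrying an alpha-synuclein 5'UTR luciferase reporter; potency for inhibition of the luciferase signal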
# [22] = target: T6, Microphthalmia-associated transcription factor (Homo sapiens, UniProt O75030); assay: reducers of TRPM1 reporter luminescence, concentration series – cell-based, SK-MEL-5, cherry-picked, set 3, MITF inhibitor project, dose response (AID 493073); assay type: functional;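 further: SK-MEL-5 melanoma cells with luciferase driven by the MITF target TRPM1 promoter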
# T6 sequence (O75030 whole entry): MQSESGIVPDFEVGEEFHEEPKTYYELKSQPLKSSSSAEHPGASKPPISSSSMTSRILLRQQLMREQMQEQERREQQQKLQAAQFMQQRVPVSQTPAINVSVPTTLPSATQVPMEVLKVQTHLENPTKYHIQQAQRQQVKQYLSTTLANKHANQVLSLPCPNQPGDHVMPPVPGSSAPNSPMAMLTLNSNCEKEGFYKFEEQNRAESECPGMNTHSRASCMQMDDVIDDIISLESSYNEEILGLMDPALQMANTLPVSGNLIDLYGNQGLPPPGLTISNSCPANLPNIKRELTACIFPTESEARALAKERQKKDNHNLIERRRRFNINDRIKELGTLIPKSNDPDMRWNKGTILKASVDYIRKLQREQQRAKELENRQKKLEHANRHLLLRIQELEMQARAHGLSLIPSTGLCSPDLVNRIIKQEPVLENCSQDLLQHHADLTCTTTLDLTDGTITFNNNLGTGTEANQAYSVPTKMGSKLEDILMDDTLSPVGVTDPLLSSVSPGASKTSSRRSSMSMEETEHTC
# A-375 = assay: proliferation inhibition in MITF-low A375 cells – cell-based, cherry-pick samples, set 2, counter-screen for MITF modulator project, dose response (AID 540335); assay type: functional; conditions: Homo sapiens
# Sequence of Neuropeptides B/W receptor type 1 (P48145 whole entry): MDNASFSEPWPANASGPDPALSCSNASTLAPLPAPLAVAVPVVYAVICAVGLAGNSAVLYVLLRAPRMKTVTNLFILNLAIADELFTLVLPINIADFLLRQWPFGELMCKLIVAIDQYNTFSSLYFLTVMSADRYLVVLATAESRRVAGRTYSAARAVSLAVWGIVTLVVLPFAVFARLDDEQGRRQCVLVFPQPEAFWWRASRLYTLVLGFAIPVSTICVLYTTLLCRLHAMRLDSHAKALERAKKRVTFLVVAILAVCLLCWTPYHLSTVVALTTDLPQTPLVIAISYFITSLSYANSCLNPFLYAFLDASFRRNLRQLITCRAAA
compound,measurement,setting,value
FC(F)(F)c1cccc(C[n+]2c3n(c4ccc(C(F)(F)F)cc42)CCCCC3)c1,IC50,[1],19.7 µM (not active)
same,IC50,[2],13 µM (not active)
same,IC50,[3],2.17 µM (active)
same,IC50,[4],3.21 µM (active)
O=C(O)C1C2CCC(O2)C1C(=O)NC1CCCCC1 (stereo not given),IC50,[5],3.7 µM (active)
same,IC50,[6],3.03 µM (active)
Cn1c(N/N=C2\CCCc3ccccc32)nc2c1c(=O)n(Cc1ccc(F)cc1)c(=O)n2C,EC50,[7],18.8 µM (active)
same,EC50,[8],9.86 µM (active)
same,EC50,[9],10.2 µM (active)
CCn1c(=O)n(CC)c(=O)n([C@@H](Cc2ccccc2)C(=O)O)c1=O,IC50,[10],> 100 µM (not active)
same,IC50,[11],> 100 µM (not active)
same,IC50,[12],> 100 µM (inactive)
same,IC50,[13],> 100 µM (inactive)
O=C(/C=C\Nc1ccc2c(c1)OCO2)c1ccccn1,EC50,[14],649 nM (active)
same,EC50,[15],23.4 µM (active)
same,EC50,cells,> 12 µM (inconclusive)
same,EC50,[16],< 100 nM (active)
same,EC50,[17],4.62 µM (active)
same,EC50,[18],234 nM (active)
same,EC50,[19],634 nM (active)
same,EC50,[20],3.3 µM (active)
same,EC50,HT-1080,> 50 µM (not active)
same,EC50,[21],874 nM (active)
same,AC50,[22],2.08 µM (active)
same,AC50,A-375,41 µM (active)
